Data published in article PMC6934184, “Selective DNA-PKcs inhibition extends the therapeutic index of localized radiotherapy and chemotherapy” (The Journal of Clinical Investigation, 2019).

Target: T1, AXL R499C (Homo sapiens, UniProt P30530, R499C)
T1 construct: purchased Thermo Fisher Scientific (Life Technologies) SelectScreen
Test: SelectScreen LanthaScreen
Format: binding
Conditions: read-out: % displacement
Description: The in vitro kinase selectivity of NU5455 was determined using the SelectScreen Broad Assay Panel (Thermo Fisher Scientific) involving activity and binding assays (Supplemental Table 1). […] Class IA PI3Ks were measured using the p85α subunit.
Kinase [ATP] % Assay Kinase [ATP] % Assay Kinase [ATP] % Assay Kinase [ATP] % Assay
DNA-PK Km app 98.3 Z LATS2 n/a 4.7 L KIT D820E n/a 1.3 L GSK3B (GSK3 beta) Km app -2.5 Z
PIK3C3 (hVPS34) Km app 85.9 A PRKCZ (PKC zeta) Km app 4.7 Z GRK1 n/a 1.3 L BMPR2 n/a -2.5 L
PIK3C2B (PI3K-C2 beta) 10 28.9 A FGFR1 Km app 4.7 Z BRSK2 n/a 1.2 L CDC42 BPB (MRCKB) Km app -2.5 Z
SNF1LK2 Km app 26.6 Z MINK1 Km app 4.6 Z NUAK1 (ARK5) Km app 1.2 A AMPK (A2/B2/G2) n/a -2.6 L
HCK Km app 18.0 Z CSF1R (FMS) Km app 4.3 Z CDK9/cyclin K n/a 1.0 L PRKG1 Km app -2.7 Z
NEK2 Km app 17.8 Z CSNK1G3 (CK1 gamma 3) Km app 4.2 Z NUAK2 n/a 1.0 L KIT T670E n/a -2.8 L
ALK Km app 17.3 Z STK32C (YANK3) n/a 4.2 L CDK2/cyclin O n/a 0.9 L ERBB4 (HER4) Km app -2.8 Z
FGFR3 K650M n/a 16.5 L STK22D (TSSK1) Km app 4.2 Z CAMKK2 (CaMKK beta) n/a 0.9 L PLK4 n/a -2.8 L
SIK3 n/a 16.1 L TAOK3 (JIK) n/a 4.2 L FGFR3 Km app 0.9 Z GRK7 Km app -3.0 Z
LYN A Km app 15.2 Z RPS6KA4 (MSK2) Km app 4.2 Z ULK2 n/a 0.9 L MAPKAPK2 Km app -3.1 Z
BMPR1B (ALK6) n/a 14.5 L PTK2B (FAK2) Km app 4.2 Z KIT D816V n/a 0.9 L FGFR4 Km app -3.1 Z
INSRR (IRR) Km app 14.1 Z CLK2 Km app 4.1 Z CAMK1 (CaMK1) 10 0.8 A CASK n/a -3.1 L
PLK2 Km app 14.1 Z STK24 (MST3) Km app 4.1 Z PTK6 (Brk) Km app 0.7 Z GRK5 Km app -3.2 Z
PRKACA (PKA) Km app 14.0 Z CAMK1D (CaMKI delta) Km app 4.1 Z CAMK2B (CaMKII beta) Km app 0.7 Z EGFR (ErbB1) T790M Km app -3.3 Z
EIF2AK2 (PKR) n/a 13.3 L INSR Km app 4.1 Z ACVR1 (ALK2) n/a 0.7 L PAK4 Km app -3.3 Z
PRKX Km app 12.5 Z IRAK1 Km app 4.0 A ABL1 H396P n/a 0.6 L DAPK3 (ZIPK) Km app -3.4 Z
FGR Km app 12.1 Z SRC N1 Km app 3.9 Z MERTK (cMER) A708S n/a 0.6 L RET M918T n/a -3.5 L
CLK1 Km app 11.7 Z SRPK2 Km app 3.9 Z MAPKAPK5 (PRAK) Km app 0.6 Z PRKCQ (PKC theta) Km app -3.7 Z
MARK3 Km app 11.4 Z RPS6KA6 (RSK4) Km app 3.8 Z AKT1 (PKB alpha) Km app 0.5 Z CAMKK1 (CAMKKA) n/a -3.8 L
PDGFRB (PDGFR beta) Km app 11.0 Z GRK6 Km app 3.7 Z NTRK3 (TRKC) Km app 0.4 Z FLT3 D835Y Km app -3.9 Z
PRKCN (PKD3) Km app 10.7 Z PKN1 (PRK1) Km app 3.6 Z ZAP70 Km app 0.3 Z ROCK2 Km app -4.1 Z
STK16 (PKL12) n/a 10.5 L MAP3K8 (COT) 100 3.5 Z CSNK1A1 (CK1 alpha 1) Km app 0.3 Z CHUK (IKK alpha) Km app -4.2 A
FES (FPS) Km app 10.4 Z FLT4 (VEGFR3) Km app 3.5 Z MYLK (MLCK) n/a 0.2 L AXL Km app -4.2 Z
ABL1 Km app 10.4 Z GRK4 Km app 3.5 Z MKNK2 (MNK2) n/a 0.2 L PIM2 Km app -4.3 Z
MUSK Km app 10.3 Z FRK (PTK5) Km app 3.4 Z AMPK (A1/B1/G3) n/a 0.2 L PAK1 Km app -4.4 Z
MAPK1 (ERK2) Km app 10.1 Z FYN A n/a 3.3 L MAP3K2 (MEKK2) n/a 0.1 L BMPR1A (ALK3) n/a -4.4 L
BRAF 100 9.9 Z CDK1/cyclin A2 n/a 3.3 L CDK8/cyclin C n/a 0.1 L STK4 (MST1) Km app -4.4 Z
IGF1R Km app 9.7 Z KIT V559D T670I n/a 3.1 L MARK2 Km app 0.1 Z PRKCH (PKC eta) Km app -4.6 Z
MAPK14 (p38 alpha) Km app 9.7 Z SPHK2 10 3.1 A ICK n/a 0.0 L SGKL (SGK3) Km app -4.6 Z
LCK Km app 9.6 Z FGFR3 G697C n/a 3.1 L FGFR2 Km app 0.0 Z PI4KB (PI4K beta) Km app -4.7 A
MAPK11 (p38 beta) Km app 9.5 Z RIPK2 n/a 3.1 L AKT2 (PKB beta) Km app 0.0 Z PRKCE (PKC epsilon) Km app -4.9 Z
SRC Km app 9.5 Z PAK6 Km app 3.0 Z EPHB2 Km app -0.1 Z PHKG1 Km app -5.0 Z
CHEK1 (CHK1) Km app 9.3 Z LYN B Km app 3.0 Z TGFBR2 n/a -0.1 L PDGFRA D842V Km app -5.0 Z
CAMK2D (CaMKII delta) Km app 9.3 Z DAPK2 n/a 2.9 L TEK (Tie2) Km app -0.1 Z PRKG2 (PKG2) Km app -5.1 Z
PLK1 Km app 9.2 Z EPHA4 Km app 2.9 Z AURKA (Aurora A) Km app -0.1 Z TYRO3 (RSE) Km app -5.1 Z
RET Y791F Km app 9.2 Z PIK3CG (p110 gamma) Km app 2.9 A KIT D816H n/a -0.2 L TAOK2 (TAO1) Km app -5.1 Z
FLT3 Km app 9.1 Z HIPK1 (Myak) Km app 2.8 Z KIT N822K n/a -0.2 L EPHB4 Km app -5.3 Z
MAPK10 (JNK3) 100 9.0 Z ADRBK2 (GRK3) Km app 2.8 Z PRKACG (PRKAC gamma) n/a -0.2 L AURKC (Aurora C) Km app -5.4 Z
CSNK2A2 (CK2 alpha 2) Km app 8.7 Z STK17B (DRAK2) n/a 2.7 L TEK (TIE2) Y1108F n/a -0.3 L JAK1 Km app -5.7 Z […]

T1 sequence (P30530 26-894 R499C): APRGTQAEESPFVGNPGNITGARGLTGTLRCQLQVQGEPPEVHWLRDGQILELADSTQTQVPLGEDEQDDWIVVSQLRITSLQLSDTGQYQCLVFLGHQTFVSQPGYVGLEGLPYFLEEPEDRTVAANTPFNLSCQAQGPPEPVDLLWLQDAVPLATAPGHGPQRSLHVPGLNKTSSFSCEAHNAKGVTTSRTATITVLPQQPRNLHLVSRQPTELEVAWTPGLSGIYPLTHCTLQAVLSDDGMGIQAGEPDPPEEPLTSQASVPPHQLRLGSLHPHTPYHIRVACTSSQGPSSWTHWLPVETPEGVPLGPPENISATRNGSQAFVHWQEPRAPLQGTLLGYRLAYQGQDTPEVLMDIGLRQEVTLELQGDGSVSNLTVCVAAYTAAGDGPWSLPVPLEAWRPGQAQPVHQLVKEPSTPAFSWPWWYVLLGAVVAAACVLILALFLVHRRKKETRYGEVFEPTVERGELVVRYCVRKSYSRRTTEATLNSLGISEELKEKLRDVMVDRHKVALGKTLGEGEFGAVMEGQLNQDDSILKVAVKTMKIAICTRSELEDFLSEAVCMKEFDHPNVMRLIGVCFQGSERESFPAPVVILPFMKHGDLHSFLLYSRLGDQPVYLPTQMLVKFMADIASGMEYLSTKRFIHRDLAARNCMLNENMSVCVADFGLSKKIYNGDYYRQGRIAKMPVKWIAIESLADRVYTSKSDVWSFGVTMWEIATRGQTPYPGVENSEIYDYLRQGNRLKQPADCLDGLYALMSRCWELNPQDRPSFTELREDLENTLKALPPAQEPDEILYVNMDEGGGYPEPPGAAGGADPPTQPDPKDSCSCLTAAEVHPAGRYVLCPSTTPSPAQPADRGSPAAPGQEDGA

Work on CN(C(=O)CN1CCOCC1)c1ccc2sc3c(-c4cccc5c(=O)cc(N6CC7CCC(C6)O7)oc45)cccc3c2c1 [NU5455] yielded an inhibition at 1 µM of -2.7%.
